In the supplement of paper PMC10307832:

Tests used:
Assay in all cases: relative viability (nuclei count vs DMSO), 5 days (fraction); higher = more cells survive
Tosedostat = compound: CC(C)C[C@@H](C(=O)N[C@H](C(=O)OC1CCCC1)c1ccccc1)[C@H](O)C(=O)NO [Tosedostat]
Outline: (§1)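 Five library-drug doses spaced by √10 were pinned onto vehicle-anchored 1536-well plates of lung cancer cell lines that had been kept overnight at 37 °C. Cells went 5 days without medium change, then were fixed, permeabilised and Hoechst-stained together, imaged at 4× and counted by MetaXpress. Viability is the ratio of treated-well to vehicle-well nuclei, taken as a median over plates. Plates required control CV below 25% and at least one doubling.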

[1] = compound: CC1=NN=C(O1)C2=NN=C(C=C2)N3CCC(CC3)OC4=C(C=CC(=C4)F)Cl
Outline: as §1

Tosedostat + Alpelisib = compound: CC(C)C[C@@H](C(=O)N[C@H](C(=O)OC1CCCC1)c1ccccc1)[C@H](O)C(=O)NO [Tosedostat] + Cc1nc(NC(=O)N2CCC[C@H]2C(N)=O)sc1-c1ccnc(C(C)(C)C(F)(F)F)c1 [Alpelisib] (partner 2 µM)
Outline: (§2)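 Relative viability was taken as the ratio of nuclei in treated wells to nuclei in vehicle wells. Lung cancer cell lines in 1536-well plates received compounds by pin tool one day after seeding, either one drug alone or a fixed anchor-drug dose plus five library-drug doses (not always all listed) in √10 steps. Nuclei were counted on 4× images after 5 days of treatment, and values are medians of duplicate plates.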

Tosedostat + Pictilisib = compound: CC(C)C[C@@H](C(=O)N[C@H](C(=O)OC1CCCC1)c1ccccc1)[C@H](O)C(=O)NO [Tosedostat] + CS(=O)(=O)N1CCN(Cc2cc3nc(-c4cccc5[nH]ncc45)nc(N4CCOCC4)c3s2)CC1 [Pictilisib] (partner 1 µM)
Outline: as §2

UMC-11
relative viability (Tosedostat; 0.02 µM): 1.1 | relative viability (Tosedostat; 0.06325 µM): 0.994 | relative viability (Tosedostat; 0.2 µM): 1.03 | relative viability (Tosedostat; 0.6325 µM): 1.04 | relative viability (Tosedostat; 2 µM): 1.05 | relative viability ([1]; 0.253 µM): 0.634 | relative viability ([1]; 0.8 µM): 0.641 | relative viability ([1]; 2.53 µM): 0.76 | relative viability ([1]; 8 µM): 0.594 | relative viability (Tosedostat + Alpelisib; first compound 0.02 µM): 0.962 | relative viability (Tosedostat + Alpelisib; first compound 0.06325 µM): 0.87 | relative viability (Tosedostat + Alpelisib; first compound 0.2 µM): 0.957 | relative viability (Tosedostat + Alpelisib; first compound 0.6325 µM): 0.942 | relative viability (Tosedostat + Alpelisib; first compound 2 µM): 1.03 | relative viability (Tosedostat + Pictilisib; first compound 0.02 µM): 0.911 | relative viability (Tosedostat + Pictilisib; first compound 0.06325 µM): 0.807 | relative viability (Tosedostat + Pictilisib; first compound 0.2 µM): 0.782 | relative viability (Tosedostat + Pictilisib; first compound 0.6325 µM): 0.705 | relative viability (Tosedostat + Pictilisib; first compound 2 µM): 0.828
